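1) Cells in 96-well plates. 2) Compound, 48 h, 5 concentrations. 3) Linear interpolation between surrounding doses. 4) Unreached endpoint = highest concentration. The concentration for 50% growth inhibition is given as GI50. TGI: total growth inhibition.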
Columns and labels:
Assay in all cases: NCI tumour cell line growth inhibition, 48 h
SK-MEL-28 melanoma = tested on: SK-MEL-28 melanoma
CCRF-CEM leukemia = tested on: CCRF-CEM leukemia
MALME-3M melanoma = tested on: MALME-3M melanoma
HOP-62 NSCLC = tested on: HOP-62 NSCLC
IGROV1 ovarian = tested on: IGROV1 ovarian
SR leukemia = tested on: SR leukemia
U251 CNS = tested on: U251 CNS
OVCAR-3 ovarian = tested on: OVCAR-3 ovarian
COLO 205 colon = tested on: COLO 205 colon
OVCAR-5 ovarian = tested on: OVCAR-5 ovarian
786-0 renal = tested on: 786-0 renal
HT29 colon = tested on: HT29 colon
NCI-H23 lung = tested on: NCI-H23 lung
OVCAR-4 ovarian = tested on: OVCAR-4 ovarian
RXF 393 renal = tested on: RXF 393 renal
RPMI-8226 leukemia = tested on: RPMI-8226 leukemia
HOP-92 NSCLC = tested on: HOP-92 NSCLC
MDA-MB-435 = tested on: MDA-MB-435
TK-10 renal = tested on: TK-10 renal
KM12 colon = tested on: KM12 colon
SF-268 CNS = tested on: SF-268 CNS
HCC-2998 colon = tested on: HCC-2998 colon
HCT-116 colon = tested on: HCT-116 colon
NCI-H460 lung = tested on: NCI-H460 lung
MDA-MB-231 breast = tested on: MDA-MB-231 breast
T-47D breast = tested on: T-47D breast
UACC-62 melanoma = tested on: UACC-62 melanoma
UACC-257 melanoma = tested on: UACC-257 melanoma
HL-60(TB) leukemia = tested on: HL-60(TB) leukemia
MCF7 breast = tested on: MCF7 breast
EKVX NSCLC = tested on: EKVX NSCLC
HCT-15 colon = tested on: HCT-15 colon
SF-539 CNS = tested on: SF-539 CNS
HS 578T breast = tested on: HS 578T breast
A498 renal = tested on: A498 renal
OVCAR-8 ovarian = tested on: OVCAR-8 ovarian
BT-549 breast = tested on: BT-549 breast
SF-295 CNS = tested on: SF-295 CNS
LOX IMVI melanoma = tested on: LOX IMVI melanoma
NCI/ADR-RES ovarian = tested on: NCI/ADR-RES ovarian
SN12C renal = tested on: SN12C renal
M14 melanoma = tested on: M14 melanoma
SNB-75 CNS = tested on: SNB-75 CNS
UO-31 renal = tested on: UO-31 renal
NCI-H522 lung = tested on: NCI-H522 lung
SK-OV-3 ovarian = tested on: SK-OV-3 ovarian
SW-620 colon = tested on: SW-620 colon
MOLT-4 leukemia = tested on: MOLT-4 leukemia
DU-145 prostate = tested on: DU-145 prostate
PC-3 prostate = tested on: PC-3 prostate
CAKI-1 renal = tested on: CAKI-1 renal
NCI-H226 lung = tested on: NCI-H226 lung
A549 NSCLC = tested on: A549 NSCLC
SNB-19 CNS = tested on: SNB-19 CNS
ACHN renal = tested on: ACHN renal
SK-MEL-5 melanoma = tested on: SK-MEL-5 melanoma
K-562 leukemia = tested on: K-562 leukemia

## O=C1c2ccccc2C(=O)c2c(Nc3ccc(CCO)cc3)ccc(O)c21
SK-MEL-28 melanoma
  GI50: 12.3 µM
  TGI: 55.2 µM
CCRF-CEM leukemia
  GI50: 3.61 µM
  TGI: 30.7 µM
MALME-3M melanoma
  GI50: 12.8 µM
  TGI: 58 µM
HOP-62 NSCLC
  GI50: 21.4 µM
  TGI: 45.9 µM
IGROV1 ovarian
  GI50: 1.41 µM
  TGI: 32.6 µM
SR leukemia
  GI50: 7.71 µM
  TGI: > 100 µM
U251 CNS
  GI50: 8.33 µM
  TGI: 85.8 µM
OVCAR-3 ovarian
  GI50: 13.2 µM
  TGI: > 100 µM
COLO 205 colon
  GI50: 4.86 µM
  TGI: 21.7 µM
OVCAR-5 ovarian
  GI50: 21.1 µM
  TGI: 62.6 µM
786-0 renal
  GI50: 17.2 µM
  TGI: 60.1 µM
HT29 colon
  GI50: 4.09 µM
  TGI: 14.9 µM
NCI-H23 lung
  GI50: 17.3 µM
  TGI: 88.7 µM
OVCAR-4 ovarian
  GI50: 9.13 µM
  TGI: > 100 µM
RXF 393 renal
  GI50: 6.54 µM
  TGI: 23.7 µM
RPMI-8226 leukemia
  GI50: 5.49 µM
  TGI: 36.5 µM
HOP-92 NSCLC
  GI50: 4.52 µM
  TGI: 26.3 µM
MDA-MB-435
  GI50: 22.6 µM
  TGI: > 100 µM
TK-10 renal
  GI50: 21.8 µM
  TGI: > 100 µM
KM12 colon
  GI50: 4.74 µM
  TGI: 36.3 µM
SF-268 CNS
  GI50: 11 µM
  TGI: > 100 µM
HCC-2998 colon
  GI50: 9.42 µM
  TGI: 28.3 µM
HCT-116 colon
  GI50: 8.71 µM
  TGI: > 100 µM
NCI-H460 lung
  GI50: 3.57 µM
  TGI: 15.1 µM
MDA-MB-231 breast
  GI50: 3.3 µM
  TGI: 24.9 µM
T-47D breast
  GI50: 0.987 µM
  TGI: 26.1 µM
UACC-62 melanoma
  GI50: 10.2 µM
  TGI: 32.3 µM
UACC-257 melanoma
  GI50: 20.3 µM
  TGI: 70.7 µM
HL-60(TB) leukemia
  GI50: 25.6 µM
  TGI: > 100 µM
MCF7 breast
  GI50: 0.504 µM
  TGI: 36.4 µM
EKVX NSCLC
  GI50: 4.69 µM
  TGI: > 100 µM
HCT-15 colon
  GI50: 4.28 µM
  TGI: 38.7 µM
SF-539 CNS
  GI50: 10.2 µM
  TGI: 27.3 µM
HS 578T breast
  GI50: 3.52 µM
  TGI: 48 µM
A498 renal
  GI50: 16.4 µM
  TGI: 40.2 µM
OVCAR-8 ovarian
  GI50: 17.4 µM
  TGI: > 100 µM
BT-549 breast
  GI50: 9.82 µM
  TGI: 68.5 µM
SF-295 CNS
  GI50: 11.8 µM
  TGI: 47.4 µM
LOX IMVI melanoma
  GI50: 3.15 µM
  TGI: 14.5 µM
NCI/ADR-RES ovarian
  GI50: 17.6 µM
  TGI: 94.4 µM
SN12C renal
  GI50: 16.9 µM
  TGI: > 100 µM
M14 melanoma
  GI50: 12.9 µM
  TGI: 61.4 µM
SNB-75 CNS
  GI50: 5.09 µM
  TGI: 29 µM
UO-31 renal
  GI50: 2.2 µM
  TGI: 26.9 µM
NCI-H522 lung
  GI50: 3.56 µM
  TGI: 16.7 µM
SK-OV-3 ovarian
  GI50: 11 µM
  TGI: 64.8 µM
SW-620 colon
  GI50: 6.69 µM
  TGI: 67.5 µM
MOLT-4 leukemia
  GI50: 10.7 µM
  TGI: > 100 µM
DU-145 prostate
  GI50: 7.67 µM
  TGI: 42.7 µM
PC-3 prostate
  GI50: 6.34 µM
  TGI: 25.5 µM
CAKI-1 renal
  GI50: 6.81 µM
  TGI: > 100 µM
NCI-H226 lung
  GI50: 14.8 µM
  TGI: 48.9 µM
A549 NSCLC
  GI50: 6.43 µM
  TGI: > 100 µM
SNB-19 CNS
  GI50: 23 µM
  TGI: 72.2 µM
ACHN renal
  GI50: 4.3 µM
  TGI: 45.2 µM
SK-MEL-5 melanoma
  GI50: 11.7 µM
  TGI: 33.5 µM
K-562 leukemia
  GI50: 18.4 µM
  TGI: > 100 µM

— PubChem BioAssay (NCI)
